Measured values reported in ChEMBL document CHEMBL3351830, “Discovery and structure-activity relationships of phenyl benzenesulfonylhydrazides as novel indoleamine 2,3-dioxygenase inhibitors” (Bioorg Med Chem Lett, 2014).

Columns and labels:
[1] = molecular target: T1, Indoleamine 2,3-dioxygenase 1 (Homo sapiens, UniProt P14902); experiment: Inhibition of human recombinant IDO expressed in Escherichia coli using N-formylkynurenine as substrate incubated for 1 hr prior to NaOH addition measured after 4 hrs by spectrophotometry
[2] = molecular target: T1, Indoleamine 2,3-dioxygenase 1; experiment: Inhibition of IDO in human HeLa cells after 24 hrs by spectrophotometry; assay type: cell-based

T1 sequence (P14902 whole entry): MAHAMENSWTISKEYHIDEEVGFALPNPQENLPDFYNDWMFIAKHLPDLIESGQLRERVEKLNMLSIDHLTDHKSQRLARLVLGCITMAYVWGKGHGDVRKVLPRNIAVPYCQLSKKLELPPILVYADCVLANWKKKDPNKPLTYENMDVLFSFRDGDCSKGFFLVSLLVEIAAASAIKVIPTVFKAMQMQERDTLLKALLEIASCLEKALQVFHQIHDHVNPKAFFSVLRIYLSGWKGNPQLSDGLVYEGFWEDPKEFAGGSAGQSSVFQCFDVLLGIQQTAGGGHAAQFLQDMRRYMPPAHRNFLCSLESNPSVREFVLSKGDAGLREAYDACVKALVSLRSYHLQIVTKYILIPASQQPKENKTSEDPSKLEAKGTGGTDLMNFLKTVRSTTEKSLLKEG

Compound | IC50 [1] | EC50 [2]
O=S(=O)(CCc1ccccc1)NNc1ccccc1 | 167 nM | > 10000 nM
COc1ccc(NNS(=O)(=O)c2ccc(NC(C)=O)cc2)cc1 | 254 nM | > 10000 nM
CC(=O)Nc1ccc(S(=O)(=O)NNc2ccc(C#N)cc2)cc1 | 5670 nM | 1390 nM
CC(=O)Nc1ccc(S(=O)(=O)NNc2ccc(S(N)(=O)=O)cc2)cc1 | 2480 nM | 3120 nM
CC(=O)Nc1ccc(S(=O)(=O)NNc2ccc(C(F)(F)F)cc2)cc1 | 1610 nM | 181 nM
CC(=O)Nc1ccc(S(=O)(=O)NNc2ccc(Cl)cc2)cc1 | 155 nM | 142 nM
CC(=O)Nc1ccc(S(=O)(=O)NNc2cccc(Br)c2)cc1 | 255 nM | 7560 nM
CC(=O)Nc1ccc(S(=O)(=O)NNc2ccc(Br)c(F)c2)cc1 | 205 nM | 187 nM
CC(=O)Nc1ccc(S(=O)(=O)NNc2ccc(Cl)c(F)c2)cc1 | 194 nM | 84 nM
CC(=O)Nc1ccc(S(=O)(=O)NNc2cc(F)cc(F)c2)cc1 | 1750 nM | 2230 nM
CC(=O)Nc1ccc(S(=O)(=O)NNc2ccc(F)cc2F)cc1 | 608 nM | > 10000 nM
CC(=O)Nc1ccc(S(=O)(=O)NNc2ccc(Cl)c(Cl)c2)cc1 | 247 nM | 350 nM
CC(=O)Nc1ccc(S(=O)(=O)NNc2cc(Cl)cc(Cl)c2)cc1 | 352 nM | 508 nM
O=S(=O)(NNc1ccc(Br)cc1)c1ccccc1 | 172 nM | 128 nM
COc1ccc(S(=O)(=O)NNc2ccc(Br)cc2)cc1 | 1430 nM | 640 nM
N#Cc1ccc(S(=O)(=O)NNc2ccc(Br)cc2)cc1 | 176 nM | 134 nM
CC(=O)Nc1ccc(S(=O)(=O)NN(C)c2ccc(Br)cc2)cc1 | 4050 nM | –

The next compounds have a lower IC50 [1] than those just listed; values first:

IC50 [1] | EC50 [2] | Compound
49 nM | 241 nM | CC(=O)Nc1ccc(S(=O)(=O)NNc2cccc(C)c2)cc1
80 nM | 271 nM | Cc1cccc(NNS(=O)(=O)c2ccc(C(=O)NCC(=O)O)cc2)c1
43 nM | 7850 nM | Cc1cccc(NNS(=O)(=O)c2ccc(S(C)(=O)=O)cc2)c1
59 nM | 3400 nM | Cc1cccc(NNS(=O)(=O)c2ccc(C#N)cc2)c1
59 nM | 296 nM | Cc1cccc(NNS(=O)(=O)c2ccc(Oc3ccc(C(F)(F)F)cn3)cc2)c1
71 nM | > 10000 nM | CC(=O)Nc1ccc(S(=O)(=O)NNc2ccccc2)cc1
51 nM | 1170 nM | CC(=O)Nc1ccc(S(=O)(=O)NNc2ccc(C)cc2)cc1
79 nM | 609 nM | CC(=O)Nc1ccc(S(=O)(=O)NNc2ccc(F)cc2)cc1
130 nM | 85 nM | CC(=O)Nc1ccc(S(=O)(=O)NNc2ccc(Br)cc2)cc1
122 nM | > 10000 nM | CC(=O)Nc1ccc(S(=O)(=O)NNc2cccc(F)c2)cc1
128 nM | 2490 nM | CC(=O)Nc1ccc(S(=O)(=O)NNc2ccc(F)c(Br)c2)cc1
110 nM | 2590 nM | CC(=O)Nc1ccc(S(=O)(=O)NNc2ccc(F)c(Cl)c2)cc1
58 nM | 130 nM | CC(=O)Nc1ccc(S(=O)(=O)NNc2ccc(Br)c(C)c2)cc1
85 nM | 374 nM | O=S(=O)(NNc1ccc(Br)cc1)c1ccc(Br)cc1
121 nM | 465 nM | COC(=O)CCc1ccc(S(=O)(=O)NNc2ccc(Br)cc2)cc1
132 nM | 187 nM | CCCC(=O)Nc1ccc(S(=O)(=O)NNc2ccc(Br)cc2)cc1
141 nM | 183 nM | O=C(O)CCc1ccc(S(=O)(=O)NNc2ccc(Br)cc2)cc1
125 nM | 152 nM | O=C(O)COc1ccc(S(=O)(=O)NNc2ccc(Br)cc2)cc1
61 nM | 172 nM | O=C(O)c1ccc(S(=O)(=O)NNc2ccc(Br)cc2)cc1
